In patent US8202987B2, “Method of obtaining conformational polymorph of sucrose” (National Central University, priority 2007, dated 2012):

Format: physicochemical
Protocol: Then an anti-solvent method is used at 60° C. to add methanol into the saturated sucrose solution for obtaining the new sucrose through re-crystallization. The new sucrose obtained has a melting point at 150° C., which is lower then 190° C. for the original sucrose. […] Therefore, the present invention contributes to sugar industry, drug industry and food industry.
Conclusively, a novel conformational polymorph of sucrose is obtained according to the present invention.

OC[C@H]1O[C@@](CO)(O[C@H]2O[C@H](CO)[C@@H](O)[C@H](O)[C@H]2O)[C@@H](O)[C@@H]1O [sucrose]
solubility: 2873 milligrams sucrose per milliliter water

OC[C@H]1O[C@@](CO)(O[C@H]2O[C@H](CO)[C@@H](O)[C@H](O)[C@H]2O)[C@@H](O)[C@@H]1O [new sucrose, sucrose]
solubility relative to the original sucrose: lower solubility than the original sucrose
stability relative to the original sucrose: higher stability than the original sucrose
